{
  "source": "ChEMBL document CHEMBL3351442",
  "about": "“Synthesis and antiproliferative evaluation of 2-hydroxylated (E)-stilbenes” (Bioorg Med Chem Lett, 2014)",
  "format_in_all_cases": "functional, cell-based",
  "key": {"HT-29": {"system": "HT-29", "assay": "Antiproliferative activity against human HT-29 cells by MTT assay"}, "[1]": {"assay": "Antiproliferative activity against human MDA468 cells by MTT assay", "conditions": "MDA-MB-468"}, "[2]": {"assay": "Antiproliferative activity against human COLO205 cells by MTT assay", "conditions": "COLO 205"}, "MGC-803": {"system": "MGC-803", "assay": "Antiproliferative activity against human MGC803 cells by MTT assay"}},
  "data": [
    {"smiles": "Oc1ccc(/C=C/c2ccccc2O)cc1", "values": [
      {"measurement": "IC50", "setting": "HT-29", "value": 33.5, "unit": "µM"}
    ]},
    {"smiles": "Oc1ccc(/C=C/c2cc(Br)ccc2O)cc1", "values": [
      {"measurement": "IC50", "setting": "HT-29", "value": 26.7, "unit": "µM"},
      {"measurement": "IC50", "setting": "[1]", "value": 3.5, "unit": "µM"}
    ]},
    {"smiles": "Oc1ccccc1/C=C/c1ccc(Br)cc1", "values": [
      {"measurement": "IC50", "setting": "HT-29", "value": 14.4, "unit": "µM"},
      {"measurement": "IC50", "setting": "[2]", "value": 21.1, "unit": "µM"},
      {"measurement": "IC50", "setting": "[1]", "value": 7.4, "unit": "µM"}
    ]},
    {"smiles": "COc1cc(/C=C/c2cc(Br)ccc2O)cc(OC)c1", "values": [
      {"measurement": "IC50", "setting": "HT-29", "value": 9.5, "unit": "µM"},
      {"measurement": "IC50", "setting": "[2]", "value": 16.4, "unit": "µM"},
      {"measurement": "IC50", "setting": "[1]", "value": 6.1, "unit": "µM"},
      {"measurement": "IC50", "setting": "MGC-803", "value": 3.3, "unit": "µM"}
    ]},
    {"smiles": "COc1cccc(/C=C/c2ccc(O)cc2)c1O", "values": [
      {"measurement": "IC50", "setting": "[1]", "value": 6.9, "unit": "µM"}
    ]},
    {"smiles": "COc1cc(/C=C/c2cc([N+](=O)[O-])ccc2O)cc(OC)c1OC", "values": [
      {"measurement": "IC50", "setting": "MGC-803", "value": 14.7, "unit": "µM"}
    ]},
    {"smiles": "COc1ccc(/C=C/c2cc(OC)c(OC)c(OC)c2)c(O)c1", "values": [
      {"measurement": "IC50", "setting": "HT-29", "value": 9.7, "unit": "µM"},
      {"measurement": "IC50", "setting": "[2]", "value": 5.3, "unit": "µM"},
      {"measurement": "IC50", "setting": "[1]", "value": 5.3, "unit": "µM"},
      {"measurement": "IC50", "setting": "MGC-803", "value": 0.035, "unit": "µM"}
    ]},
    {"smiles": "COc1ccc(/C=C/c2cc(Br)ccc2O)c(OC)c1", "values": [
      {"measurement": "IC50", "setting": "HT-29", "value": 10, "unit": "µM"},
      {"measurement": "IC50", "setting": "[1]", "value": 3.7, "unit": "µM"},
      {"measurement": "IC50", "setting": "MGC-803", "value": 3.5, "unit": "µM"}
    ]},
    {"smiles": "Cc1ccc(/C=C/c2ccccc2O)cc1", "values": [
      {"measurement": "IC50", "setting": "HT-29", "value": 22.9, "unit": "µM"},
      {"measurement": "IC50", "setting": "[1]", "value": 21.9, "unit": "µM"}
    ]},
    {"smiles": "COc1cc(/C=C/c2ccccc2O)cc(OC)c1", "values": [
      {"measurement": "IC50", "setting": "HT-29", "value": 26.2, "unit": "µM"},
      {"measurement": "IC50", "setting": "[1]", "value": 12.6, "unit": "µM"},
      {"measurement": "IC50", "setting": "MGC-803", "value": 6.3, "unit": "µM"}
    ]},
    {"smiles": "COc1cc(/C=C/c2cc([N+](=O)[O-])ccc2O)cc(OC)c1", "values": [
      {"measurement": "IC50", "setting": "HT-29", "value": 12.6, "unit": "µM"},
      {"measurement": "IC50", "setting": "MGC-803", "value": 10.6, "unit": "µM"}
    ]},
    {"smiles": "COc1ccc(/C=C/c2cccc(OC)c2O)cc1", "values": [
      {"measurement": "IC50", "setting": "[2]", "value": 20.2, "unit": "µM"}
    ]},
    {"smiles": "Cc1cc(C)cc(/C=C/c2cc(Br)ccc2O)c1", "values": [
      {"measurement": "IC50", "setting": "HT-29", "value": 13.3, "unit": "µM"},
      {"measurement": "IC50", "setting": "[1]", "value": 7.2, "unit": "µM"},
      {"measurement": "IC50", "setting": "MGC-803", "value": 5, "unit": "µM"}
    ]},
    {"smiles": "Oc1cc(O)cc(/C=C/c2ccccc2O)c1", "values": [
      {"measurement": "IC50", "setting": "HT-29", "value": 26.2, "unit": "µM"}
    ]},
    {"smiles": "COc1ccc(/C=C/c2cccc(OC)c2O)c(OC)c1", "values": [
      {"measurement": "IC50", "setting": "[1]", "value": 5.1, "unit": "µM"}
    ]},
    {"smiles": "Oc1ccc(/C=C/c2cc(O)cc(O)c2)cc1", "note": "[RESVERATROL]", "values": [
      {"measurement": "IC50", "setting": "HT-29", "value": 87.2, "unit": "µM"},
      {"measurement": "IC50", "setting": "[2]", "value": 23.5, "unit": "µM"},
      {"measurement": "IC50", "setting": "[1]", "value": 45.2, "unit": "µM"},
      {"measurement": "IC50", "setting": "MGC-803", "value": 42, "unit": "µM"}
    ]},
    {"smiles": "COc1cccc(/C=C\\c2cc(OC)c(OC)c(OC)c2)c1O", "values": [
      {"measurement": "IC50", "setting": "[1]", "value": 2.6, "unit": "µM"},
      {"measurement": "IC50", "setting": "MGC-803", "value": 1.1, "unit": "µM"}
    ]},
    {"smiles": "COc1cc(/C=C/c2cc(Br)ccc2O)cc(OC)c1OC", "values": [
      {"measurement": "IC50", "setting": "HT-29", "value": 18.5, "unit": "µM"},
      {"measurement": "IC50", "setting": "[1]", "value": 14.2, "unit": "µM"},
      {"measurement": "IC50", "setting": "MGC-803", "value": 4.5, "unit": "µM"}
    ]},
    {"smiles": "N#Cc1ccc(/C=C/c2ccccc2O)cc1", "values": [
      {"measurement": "IC50", "setting": "MGC-803", "value": 3.1, "unit": "µM"}
    ]},
    {"smiles": "Oc1ccccc1/C=C/c1ccccc1", "values": [
      {"measurement": "IC50", "setting": "[1]", "value": 19.3, "unit": "µM"}
    ]}
  ]
}
